Results as given in publication PMC8838415, “Discovery of Novel Pleuromutilin Derivatives as Potent Antibacterial Agents for the Treatment of MRSA Infection” (Molecules, 2022).
Converted amounts (≈) assume the structure as drawn.

Tests used:
[1] = test system: S. aureus (144); experiment: MIC and MBC, broth dilution, S. aureus 144; type: cell-based; settings: Staphylococcus aureus; S. aureus 144 (clinical strain)
Procedure: (§1) The synthesized pleuromutilin derivatives 8–30 were tested against four Gram-positive bacteria (MRSA ATCC 43300, S. aureus ATCC 29213 and two clinical strains of S. aureus (AD3 and 144) isolated from Guangdong Province). Tiamulin was used as the positive control in this experiment.
(§2) MIC values were tested following our previous work. The derivatives were dissolved in an aqueous solution of 2.5% tween-80 and 2.5% DMSO to make a solution with a concentration of 1000 µg/mL. The solution was diluted 12 times with MH broth to give a concentration range of 32–0.01 µg/mL. The bacteria (5 × 10^5 CFU/mL) were added in each well. For each compound concentration, three parallel experiments were set. The 96-well plate was incubated for 22–26 h at 37 °C. The MIC value was recorded as the minimal concentration that inhibits the visible growth of tested bacteria completely.
(§3) The MBC of these pleuromutilin derivatives were tested according to a previously reference. […] Then, the values of MBC were determined by laying 100 μL aliquots from the wells onto the MH agar plates without visible growth. The MH agar plate was cultured for a further 22–26 h at 37 °C.

[2] = test system: 50S ribosome; experiment: SPR interaction and affinity analysis; type: binding, S. aureus ATCC 43300; settings: 4 °C; for Avg ka / Avg kd: 1:1 Langmuir binding; for Kd: KD = Kd/Ka
Procedure: S. aureus ATCC 43300 was used to prepare the 50S ribosomal subunit the same way as described previously. Cells were grown overnight in Brain Heart Infusion broth at 37 °C and harvested for 1.5 h at an OD600. Cells were washed with 10 mM Tris-HCl twice at pH = 7.5, and resuspended in 5 mL buffer A (20 mM HEPES-HCl pH = 7.5, 21 mM Mg(OAc)2, 100 mM NH4Cl, 1 mM DTT, 1 mM EDTA). Cells were broken by an ultrasound crusher. The lysate was centrifuged for 90 min at 20,000× g to clear cell debris.
The solution was layered on a sucrose cushion of 15 mL (10 mM Hepes-KOH pH 7.5, 25 mM Mg(OAc)2, 500 mM KCl, […], 1 mM DTT, 0.5 mM EDTA). Centrifugation was carried out for 15 h at 45,000 rpm using an ultracentrifuge Beckman (Beckman Coulter, Shanghai, China), Type 70Ti rotor. The crude ribosome pellet was resuspended in buffer E (10 mM Hepes-KOH pH 7.5, 10 mM Mg(OAc)2, 100 mM KCl, 1 mM DTT, 0.5 mM EDTA), then layered on 9 mL of 7–30% sucrose gradient and centrifuged in an ultracentrifuge Beckman, type SW40Ti rotor at 17,100 rpm for 15 h. The gradient was analyzed on the AKTA explorer system (Amersham, UK). The fractions corresponding to the 50S ribosomal subunit were collected and further subjected to precipitation by PEG 20,000. The 50S ribosomal subunit pellet was gently dissolved in 200 µL of storage buffer (10 mM HEPES-HCl pH = 7.5, 10 mM Mg(OAc)2, 15 mM KCl, 60 mM NH4Cl, 1 mM DTT) and stored at −80 °C.
SPR affinity analysis was performed on the bScreen LB 991 Label-free Microarray System (Berthold Technologies, Black Forest, Germany) at 4 °C and Biodot AD-1520 Array Printer (BIODOT Inc., Irvine, CA, USA) with a Photo-cross-linker SensorCHIP™. Concentrations of each compound were diluted to 100 μM with DMSO as the printing working solution for immobilization. A Biodot AD-1520 Array Printer (BIODOT Inc., CA, USA) was used to control the photo-cross-linker sensor chip and print samples. Each sample was printed four times. In order to check the chip quality and check whether the detection system works, DMSO was used as a system-negative control and rapamycin as a positive control. All positive control dots were divided into four groups and printed on the four corners of the sensor chip. The sensor chip was dried in vacuum after the array print and quickly transferred to a spectra radiator for a photo cross-linking reaction. The sensor chip was washed with C2H5OH, DMF and H2O in turn and evaporated in a N2 atmosphere for 15 min. Then, the Flowcell Cover were assembled.
The 50S ribosome was diluted separately to 200 nM, 400 nM, 800 nM, 1600 nM and 3200 nM with PBST (pH = 7.4, 0.1% Tween 20). Different concentrations of ribosome solutions were injected at a flow rate of 0.5 μL⋅s^−1 for 600 s at the associating stage at 4 °C, followed by PBST at a flow rate of 0.5⋅μL·s^−1 for 360 s at each dissociating stage. Then, the surface was regenerated with Glycine-HCl (pH = 2.0) at a flow rate of 2⋅μL·s^−1 for 300 s.
The raw data of the binding process of compounds and the 50S ribosome were recorded in real time. We compared the response unit (RU) of surface resonance to determine the different binding affinity between each sample dot. The process and analysis of association rate constants (Ka) and dissociation rate constants (Kd) and the equilibrium dissociation constant (KD, Kd/Ka) were performed using the data analysis software of the bScreen LB 991 Label-free Microarray System according to a single-site binding model (1:1 Langmuir binding) with mass transfer limitations for binding kinetics determination.

[3] = test system: methicillin-resistant S. aureus (ATCC 43300); experiment: MIC and MBC, broth dilution, MRSA ATCC 43300; type: cell-based; settings: Staphylococcus aureus
Procedure: as §1, §2, §3

[4] = test system: S. aureus (ATCC 29213); experiment: MIC and MBC, broth dilution, S. aureus ATCC 29213; type: cell-based; settings: Staphylococcus aureus, ATCC29213
Procedure: as §1, §2, §3

[5] = test system: S. aureus (AD3); experiment: MIC and MBC, broth dilution, S. aureus AD3; type: cell-based; settings: Staphylococcus aureus; S. aureus AD3 (clinical strain)
Procedure: as §1, §2, §3

SMILES | MIC [1] [µg/mL] | Avg kd [2] [s⁻¹] | Kd [2] [µM] | MIC [3] [µg/mL] | MIC [4] [µg/mL] | MIC [5] [µg/mL] | melting point [°C] | MBC [1] [µg/mL] | Avg ka [2] [M⁻¹ s⁻¹] | MBC [3] [µg/mL] | MBC [4] [µg/mL] | MBC [5] [µg/mL]
C=C[C@]1(C)C[C@@H](OC(=O)CNCCc2ccccc2C)[C@]2(C)[C@H](C)CC[C@]3(CCC(=O)[C@H]32)[C@@H](C)[C@@H]1O [Compound 18, 22-(2-Methylphenethylamineyl)-22-deoxypleuromutilin] | 4 (≈ 8.07 µM) | 0.00445 | 33.2 | 1 (≈ 2.02 µM) | 2 (≈ 4.03 µM) | 4 (≈ 8.07 µM) | 91 to 93 | 4 (≈ 8.07 µM) | 134 | 2 (≈ 4.03 µM) | 8 (≈ 16.1 µM) | 16 (≈ 32.3 µM)
C=C[C@]1(C)C[C@@H](OC(=O)CNCCCc2ccccc2)[C@]2(C)[C@H](C)CC[C@]3(CCC(=O)[C@H]32)[C@@H](C)[C@@H]1O [Compound 19, 22-(3-Phenylpropylamineyl)-22-deoxypleuromutilin] | 4 (≈ 8.07 µM) | 0.000469 | 0.151 | 1 (≈ 2.02 µM) | 2 (≈ 4.03 µM) | 1 (≈ 2.02 µM) | 83 to 84 | 8 (≈ 16.1 µM) | 3110 | 2 (≈ 4.03 µM) | 4 (≈ 8.07 µM) | 4 (≈ 8.07 µM)
C=C[C@]1(C)C[C@@H](OC(=O)CNCCc2cccs2)[C@]2(C)[C@H](C)CC[C@]3(CCC(=O)[C@H]32)[C@@H](C)[C@@H]1O [Compound 20, 22-(Thiophene-2-ethylamineyl)-22-deoxypleuromutilin] | 2 (≈ 4.1 µM) | 0.0197 | 31.6 | 0.5 (≈ 1.03 µM) | 2 (≈ 4.1 µM) | 4 (≈ 8.2 µM) | 69 to 70 | 4 (≈ 8.2 µM) | 624 | 1 (≈ 2.05 µM) | 2 (≈ 4.1 µM) | 16 (≈ 32.8 µM)
C=C[C@]1(C)C[C@@H](OC(=O)CNCCS(C)(=O)=O)[C@]2(C)[C@H](C)CC[C@]3(CCC(=O)[C@H]32)[C@@H](C)[C@@H]1O [Compound 25, 22-(2-(Methylsulfonyl)ethylamineyl)-22-deoxypleuromutilin] | 4 (≈ 8.27 µM) | 0.00833 | 3080 | 1 (≈ 2.07 µM) | 2 (≈ 4.14 µM) | 2 (≈ 4.14 µM) | 183 to 186 | 8 (≈ 16.5 µM) | 2.70 | 2 (≈ 4.14 µM) | 2 (≈ 4.14 µM) | 4 (≈ 8.27 µM)
C=C[C@]1(C)C[C@@H](OC(=O)CNCCSC)[C@]2(C)[C@H](C)CC[C@]3(CCC(=O)[C@H]32)[C@@H](C)[C@@H]1O [Compound 26, 22-(2-(Methylthio)ethylamineyl)-22-deoxypleuromutilin] | 2 (≈ 4.43 µM) | 0.779 |  | 1 (≈ 2.21 µM) | 2 (≈ 4.43 µM) | 1 (≈ 2.21 µM) | 153 to 155 | 4 (≈ 8.86 µM) | 1.26 | 1 (≈ 2.21 µM) | 2 (≈ 4.43 µM) | 4 (≈ 8.86 µM)

Continued, in another order:

MIC [1] [µg/mL] | Avg kd [2] [s⁻¹] | Kd [2] [µM] | MIC [3] [µg/mL] | MIC [4] [µg/mL] | MIC [5] [µg/mL] | melting point [°C] | SMILES | MBC [1] [µg/mL] | Avg ka [2] [M⁻¹ s⁻¹] | MBC [3] [µg/mL] | MBC [4] [µg/mL] | MBC [5] [µg/mL]
8 (≈ 18.4 µM) | 0.0231 | 5440 | 2 (≈ 4.61 µM) | 4 (≈ 9.22 µM) | 4 (≈ 9.22 µM) | 74 to 75 | C=C[C@]1(C)C[C@@H](OC(=O)CNCCCC)[C@]2(C)[C@H](C)CC[C@]3(CCC(=O)[C@H]32)[C@@H](C)[C@@H]1O [Compound 21, 22-Butylamineyl-22-deoxypleuromutilin] | 8 (≈ 18.4 µM) | 4.24 | 4 (≈ 9.22 µM) | 4 (≈ 9.22 µM) | 8 (≈ 18.4 µM)
32 (≈ 65.3 µM) | 0.00073 | 6.41 | 16 (≈ 32.7 µM) | 16 (≈ 32.7 µM) | 32 (≈ 65.3 µM) | 76 to 77 | C=C[C@]1(C)C[C@@H](OC(=O)CNCCCCCCCC)[C@]2(C)[C@H](C)CC[C@]3(CCC(=O)[C@H]32)[C@@H](C)[C@@H]1O [Compound 22, 22-Octylamineyl-22-deoxypleuromutilin] | > 32 | 114 | 32 (≈ 65.3 µM) | > 32 | > 32
32 (≈ 58.6 µM) | 0.0011 | 0.0456 | 32 (≈ 58.6 µM) | 32 (≈ 58.6 µM) | 32 (≈ 58.6 µM) | 75 to 77 | C=C[C@]1(C)C[C@@H](OC(=O)CNCCCCCCCCCCCC)[C@]2(C)[C@H](C)CC[C@]3(CCC(=O)[C@H]32)[C@@H](C)[C@@H]1O [Compound 23, 22-Dodecylamineyl-22-deoxypleuromutilin] | > 32 | 24100 | 32 (≈ 58.6 µM) | > 32 | > 32
32 (≈ 53.2 µM) | 0.0375 | 993 | 32 (≈ 53.2 µM) | 32 (≈ 53.2 µM) | > 32 | 76 to 79 | C=C[C@]1(C)C[C@@H](OC(=O)CNCCCCCCCCCCCCCCCC)[C@]2(C)[C@H](C)CC[C@]3(CCC(=O)[C@H]32)[C@@H](C)[C@@H]1O [Compound 24, 22-Hexadecylamineyl-22-deoxypleuromutilin] | > 32 |  | > 32 | > 32 | > 32
